Reference: patent publication US20080306166A1, “Compositions and Methods For Treatment of Disorders of Protein Aggregation” (priority 2004, published 2008)
“Also recorded” adds a separate entry of the source.

What was measured:
Assay type in all cases: in vivo, mouse
TgCRND8 mice [1] = experiment: Morris Water Maze spatial reference memory test in TgCRND8 mice; conditions: six month old TgCRND8 mice, 28 days treatment from 5 months
Procedure: Mice. […] This initial dosage was chosen based upon the dosage of myo-cyclohexanehexyl (6-18 grams/day/adult or 86-257 mg/Kg/day) that is typically administered to human patients for various psychiatric disorders. […] A cohort of animals (n=10 mice per treatment arm) entered the study at five months of age, and outcomes were then analyzed after one month of treatment. The body weight, coat characteristics and in cage behaviour were monitored. Mannitol was used as a negative control for potential alterations in caloric intake. All experiments were performed according to the Canadian Council on Animal Care guidelines. Behavioural tests: Morris Water Maze testing was performed as previously described. After non-spatial pre-training, mice underwent place discrimination training for 5 days with 4-trials per day, followed by a cued visible platform to rule out general motivational, learning deficits and motor problems, and a probe trial to evaluate memory. […] Open field test for motor activity was preformed as described previously. Duration of walking, pausing and grooming were analyzed as indices of spontaneous locomotor activity. Sensorimotor function was examined with an Economex™ accelerating rotarod (Columbus Instruments, Columbus, Ohio), as described elsewhere. The rod was set to accelerate at a rate of 0.2 r.p.m./s, from an initial, constant speed of 5 r.p.m. Latency to fall was recorded in four daily trials, conducted at 30 min intervals. All mice were trained for seven days before testing. The test day performance score for each animal was obtained by summing its latency to fall over the four trials. Cerebral amyloid burden. Brains were removed and one hemisphere was fixed in 4% paraformaldehyde and embedded in paraffin wax in the mid sagittal plane. To generate sets of systematic uniform random sections, 5 μm serial sections were collected across the entire hemisphere. Sets of sections at 50 μm intervals were used for analyses (10-14 sections/set). Plaques were identified after antigen retrieval with formic acid, and incubation with primary anti-AD antibody (Dako M-0872), followed by secondary antibody (Dako StreptABCcomplex/horseradish kit). End products were visualized with DAB and were counter-stained with luxol fast blue. Amyloid plaque burden was assessed with Leco IA-3001 image analysis software interfaced with Leica microscope and Hitachi KP-M1U CCD video camera. Openlab imaging software (Improvision, Lexington, Mass.) was then used to convert micrographs to binary images for plaque number and plaque area determinations. Vascular amyloid burden was defined as amyloid originating from or surrounding blood vessels and was analysed similarly. Plasma and Cerebral Aβ Content. Hemi-brain samples were homogenized in a buffered sucrose solution, followed by either 0.4% diethylamine/100 mM NaCl for soluble Aβ levels or cold formic acid for the isolation of total Aβ. After neutralization, the samples were diluted and analyzed for Aβ40 and Aβ42 using commercially available kits (BIOSOURCE International). Each hemisphere was analyzed intriplicate and the mean values ±SEM reported. Western blot analyses were performed on all fractions using urea gels for Aβ species analyses. Aβ was detected using 6E10 (BIOSOURCE International) and Enhanced Chemiluminenscence (Amersham). Gliosis Quantitation. Five randomly selected, evenly spaced, sagittal sections were collected from paraformaldehyde-fixed and frozen hemispheres of treated and control mice. […]

TgCRND8 mice [2] = experiment: Cerebral amyloid plaque burden (anti-Aβ immunostaining, image analysis)
Procedure: Mice. […] This initial dosage was chosen based upon the dosage of myo-cyclohexanehexyl (6-18 grams/day/adult or 86-257 mg/Kg/day) that is typically administered to human patients for various psychiatric disorders. […] A cohort of animals (n=10 mice per treatment arm) entered the study at five months of age, and outcomes were then analyzed after one month of treatment. The body weight, coat characteristics and in cage behaviour were monitored. Mannitol was used as a negative control for potential alterations in caloric intake. All experiments were performed according to the Canadian Council on Animal Care guidelines. Behavioural tests: Morris Water Maze testing was performed as previously described. After non-spatial pre-training, mice underwent place discrimination training for 5 days with 4-trials per day, followed by a cued visible platform to rule out general motivational, learning deficits and motor problems, and a probe trial to evaluate memory. […] Open field test for motor activity was preformed as described previously. Duration of walking, pausing and grooming were analyzed as indices of spontaneous locomotor activity. Sensorimotor function was examined with an Economex™ accelerating rotarod (Columbus Instruments, Columbus, Ohio), as described elsewhere. The rod was set to accelerate at a rate of 0.2 r.p.m./s, from an initial, constant speed of 5 r.p.m. Latency to fall was recorded in four daily trials, conducted at 30 min intervals. All mice were trained for seven days before testing. The test day performance score for each animal was obtained by summing its latency to fall over the four trials. Cerebral amyloid burden. Brains were removed and one hemisphere was fixed in 4% paraformaldehyde and embedded in paraffin wax in the mid sagittal plane. To generate sets of systematic uniform random sections, 5 μm serial sections were collected across the entire hemisphere. Sets of sections at 50 μm intervals were used for analyses (10-14 sections/set). Plaques were identified after antigen retrieval with formic acid, and incubation with primary anti-AD antibody (Dako M-0872), followed by secondary antibody (Dako StreptABCcomplex/horseradish kit). End products were visualized with DAB and were counter-stained with luxol fast blue. Amyloid plaque burden was assessed with Leco IA-3001 image analysis software interfaced with Leica microscope and Hitachi KP-M1U CCD video camera. Openlab imaging software (Improvision, Lexington, Mass.) was then used to convert micrographs to binary images for plaque number and plaque area determinations. Vascular amyloid burden was defined as amyloid originating from or surrounding blood vessels and was analysed similarly. Plasma and Cerebral Aβ Content. Hemi-brain samples were homogenized in a buffered sucrose solution, followed by either 0.4% diethylamine/100 mM NaCl for soluble Aβ levels or cold formic acid for the isolation of total Aβ. After neutralization, the samples were diluted and analyzed for Aβ40 and Aβ42 using commercially available kits (BIOSOURCE International). Each hemisphere was analyzed intriplicate and the mean values ±SEM reported. Western blot analyses were performed on all fractions using urea gels for Aβ species analyses. Aβ was detected using 6E10 (BIOSOURCE International) and Enhanced Chemiluminenscence (Amersham). Gliosis Quantitation. Five randomly selected, evenly spaced, sagittal sections were collected from paraformaldehyde-fixed and frozen hemispheres of treated and control mice. Sections were immunolabelled for astrocytes with anti-rat GFAP IgG2a, (Dako; diluted 1:50) and for microglia with anti-rat CD68 IgG2b (Dako; 1:50).

Aβ42 = biological target: T1, Aβ42 (Homo sapiens, UniProt P05067); experiment: Plasma Aβ42 levels; conditions: TgCRND8 mice, 28 days of therapy at five months of age
T1 construct: analyzed for Aβ40 and Aβ42 using commercially available kits; from tissue; host or cells: TgCRND8 transgenic mice: hemi-brain (A3) and plasma (A5)
T1 sequence (P05067 672-713): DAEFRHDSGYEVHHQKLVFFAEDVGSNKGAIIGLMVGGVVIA
Procedure: Mice. […] This initial dosage was chosen based upon the dosage of myo-cyclohexanehexyl (6-18 grams/day/adult or 86-257 mg/Kg/day) that is typically administered to human patients for various psychiatric disorders. […] A cohort of animals (n=10 mice per treatment arm) entered the study at five months of age, and outcomes were then analyzed after one month of treatment. The body weight, coat characteristics and in cage behaviour were monitored. Mannitol was used as a negative control for potential alterations in caloric intake. All experiments were performed according to the Canadian Council on Animal Care guidelines. Behavioural tests: Morris Water Maze testing was performed as previously described. […] Duration of walking, pausing and grooming were analyzed as indices of spontaneous locomotor activity. […] Latency to fall was recorded in four daily trials, conducted at 30 min intervals. […] Amyloid plaque burden was assessed with Leco IA-3001 image analysis software interfaced with Leica microscope and Hitachi KP-M1U CCD video camera. […] Vascular amyloid burden was defined as amyloid originating from or surrounding blood vessels and was analysed similarly. […] After neutralization, the samples were diluted and analyzed for Aβ40 and Aβ42 using commercially available kits (BIOSOURCE International). Each hemisphere was analyzed intriplicate and the mean values ±SEM reported. […] Gliosis Quantitation. […]

[3] = TgCRND8 mice, oral, 28 days from 5 months of age, 6 months of age, listed as Epi-cyclohexanehexol

OC1C(O)C(O)C(O)C(O)C1O (stereo not drawn) [epi-cyclohexanehexyl, 1,2,3,4,5/6-(epi-) cyclohexanehexyl, reference compound]
spatial learning performance compared to non-Tg littermates (TgCRND8 mice [1]): significantly poorer than the performance of their non-Tg littermates; also recorded: remained impaired with respect to non-Tg littermates | spatial learning performance compared to untreated TgCRND8 littermates (TgCRND8 mice [1]): not significantly different from that of untreated TgCRND8 littermates | impact on brain Aβ40 or Aβ42 levels, percent area of the brain covered with plaques, or plaque number (TgCRND8 mice [2]; TgCRND8 mice with pre-existing disease, 28 days): no significant impact | Mean Plaque Size (TgCRND8 mice [2]; [3]): 346 ± 6 μm^2 | Total Plaque Area (TgCRND8 mice [2]; [3]): 459706 ± 49966 μm^2 | Total Plaque Count (TgCRND8 mice [2]; [3]): 1342 ± 114 | Plasma Aβ42 levels (Aβ42): 1079 ± 79 pg/mL
